This note sets out measurements from patent US9204654B2, “Synergistic combination of a zoxamide compound and zinc pyrithione for dry film protection” (Rohm and Haas Company, priority 2012, dated 2015).

Test [1] has as its system Chlorella sp. ATCC 7516. Nature of the test: Algal efficacy test of dry paint film (modified ASTM 5589, 6-well plates). It counts as cell-based. The conditions noted are these: 3 weeks; for Total conc: total biocide concentration in paint taken as minimum inhibitory concentration, pass level ≧75% inhibition, for zoxamide the maximum concentration tested, pass not reached. As for the experimental part: (§1) Slurries containing 33% antimicrobial active ingredients (Zoxamide and ZnPT) were post added to a white, acrylic/silicone based outdoor paint free of biocides to give a total active ingredient concentration of 10000 and 1000 ppm respectively. These paints were then diluted with an antimicrobial free acrylic/silicone based paint and mixed to prepare targeted concentrations of antimicrobial compounds for the testing. The total biocides concentrations tested were 125, 250, 500, 1000, 2000 and 5000 ppm. After biocides addition or dilution, the paints were mixed 90 seconds with the horse power shaker (AXEL 75M3372/Agitateur SO-10MI) until uniformity was achieved. Paints containing different antimicrobial compounds at the same levels were mixed together in order to obtain the desired ratio of antimicrobial compounds. After one day, the paints were applied to Schleicher & Schuell filter paper at 280 μm wft and dried for 3 days at room temperature avoiding direct exposure to sunlight. Square discs (1.6 cm×1.6 cm) were cut out from each panel and were used as the substrate for algal efficacy tests. This sample size allowed for an agar border when the sample disc was placed into the well of the test plate.
(§2) Algal efficacy was tested according to modified ASTM 5589 which is a standard accelerated test method for determining resistance of various coatings (including paints) to algal defacement. To accommodate for high-throughput screening, this method was scaled down from petri dishes to 6-well plates. Bold Modified Basal Freshwater Nutrient Solution was used as growth medium. A single coated filter paper coupon was placed with a pair of sterile forceps at the center of the agar plug (on top) with the painted surface facing upwards. Algal inoculums were prepared by mixing equal concentrations (1×10^6 cfu/ml) and equal volumes of exponentially growing algae cultures.
(§3) Each well that contains a tested coupon was inoculated with 1750 μl of algal suspensions (1×10^6 cfu/ml) making sure that the whole surface (paint film as well as the agar surrounding it) was evenly covered. The plates were incubated at room temp (21° C.-25° C.) with cyclic exposure to light and dark phases, for a period of three weeks.
(§4) At the end of the three week incubation period, the samples were scored for percent inhibition regarding visible algal growth compared to the blank sample (0% inhibition).
(§5) The SI is calculated based on F. C.
(§6) SI value of <1 in the formula indicates a synergism of the blended biocides exists.
(§7) The minimal targeted inhibition was set at 75%, meaning a coupon with at least 75% algal growth inhibition was considered as a pass.

Test [2] has as its system Stichococcus bacillaris SAG 379-1a CCAP 379/1a. The description is as above. It counts as cell-based. The settings on record: 3 weeks; for Total conc: total biocide concentration in paint taken as minimum inhibitory concentration, pass level ≧75% inhibition, for zoxamide the maximum concentration tested, pass not reached. As for the experimental part: as §1, §2, §3, §4, §5, §6, §7

[3] abbreviates: total conc 500 ppm in paint, visible algal growth vs blank.

The structures appear in SMILES notation.

Consider `[O-][n+]1ccccc1[S][Zn][S]c1cccc[n+]1[O-]` [ZnPT, bis(2-pyridylthio)zinc 1,1′-dioxide], for which the Total conc in test [1] and in test [2] was 500 ppm in each case. The “% inhibition” value in test [1] (setting [3]) amounted to 90%; in test [2] (setting [3]) it was 85%.

With `CCC(C)(NC(=O)c1cc(Cl)c(C)c(Cl)c1)C(=O)CCl` (centres unmarked) [Zoxamide, 3,5-Dichloro-N-(3-chloro-1-ethyl-1-methyl-2-oxopropyl)-4-methylbenzamide], the inhibition at 5000 ppm stood at 60% in test [1] (504 h, total conc 5000 ppm in paint, visible algal growth vs blank) and 45% in test [2] (Stichococcus bacillaris, 504 h, total conc 5000 ppm in paint, visible algal growth vs blank). The Total conc in test [1] and in test [2] was 5000 ppm in each case.
